Here are results for 19 compounds from patent US9815787B2, “Sulfonamide derivative or pharmaceutically acceptable acid addition salt thereof” (UNIVERSITY OF TSUKUBA, priority 2013, dated 2017).

This test deals with T1, OX2R (Homo sapiens, UniProt O43614).
T1 construct: expressed in transfected cells; host or cells: CHO (Chinese hamster ovary) cells constitutively expressing the OX2R gene and NFAT-luciferase (CHOOX2R)
T1 sequence (O43614 1-444): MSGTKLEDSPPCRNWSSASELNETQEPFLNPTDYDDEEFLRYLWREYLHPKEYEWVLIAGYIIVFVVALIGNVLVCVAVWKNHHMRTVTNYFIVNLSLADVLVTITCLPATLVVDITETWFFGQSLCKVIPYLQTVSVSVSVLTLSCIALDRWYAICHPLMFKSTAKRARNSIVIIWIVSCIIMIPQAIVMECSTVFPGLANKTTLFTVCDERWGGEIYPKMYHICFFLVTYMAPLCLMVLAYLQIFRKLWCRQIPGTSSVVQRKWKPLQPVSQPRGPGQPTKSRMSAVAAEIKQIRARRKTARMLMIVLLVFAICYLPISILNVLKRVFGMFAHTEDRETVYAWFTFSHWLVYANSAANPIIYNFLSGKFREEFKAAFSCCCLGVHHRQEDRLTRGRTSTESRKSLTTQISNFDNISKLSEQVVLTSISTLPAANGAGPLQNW
In words: Evaluation of agonist activity against OX2R (CHOOX2R cells, Fura2AM fluorescence, FDSS3000). The class given is cell-based. The method, boiled down:
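CHO cells stably expressing human OX2R (and NFAT-luciferase), cultured 48 h in 5% FBS DMEM. Agonist response read as change in Fura2AM fluorescence on compound addition in HEPES buffer. Final compound concentrations 0.1, 1.0 or 10 μM; 1% DMSO.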

[1] abbreviates: test compound 0.1 μM; relative to orexin-A as full agonist (100%); CHOOX2R cells.
Where [2] appears, read: test compound 1.0 μM; relative to orexin-A as full agonist (100%); CHOOX2R cells.
Setting [3] is: test compound 10 μM; relative to orexin-A as full agonist (100%); CHOOX2R cells.
Where [4] appears, read: test compound 0.1 μM; CHOOX2R cells; relative to orexin-A as full agonist (100%).
[5] abbreviates: test compound 1.0 μM; CHOOX2R cells; relative to orexin-A as full agonist (100%).
Setting [6] is: test compound 10 μM; CHOOX2R cells; relative to orexin-A as full agonist (100%).
Where [7] appears, read: OX2R agonist activity; CHOOX2R cells.
Where [8] appears, read: conversion with orexin-A as full agonist (maximum agonist activity 100%).

Where only a bound is given, the exact number is not on record here.

For `COc1cc(C)c(-c2cccc(C(=O)N(C)C)c2)cc1S(=O)(=O)Nc1cccc(NCCNC(=O)c2cccnc2OC)c1` [Example 103, N-(2-((3-(3′-(dimethylcarbamoyl)-4-methoxy-6-methyl-[1,1′-biphenyl]-3-ylsulfonamido)phenyl)amino)ethyl)-2-methoxynicotinamide], the “Response (0.1 μM (%))” value under setting [1] stood at 77%. Further, the “Response (1.0 μM (%))” value under setting [2] turned out to be 93%. For the same compound, the “Response (10 μM (%))” value under setting [3] is 80%.

Turning to `COc1cccc(C(=O)NCCNc2cccc(NS(=O)(=O)c3cc(-c4cc(OC)ccc4F)ccc3OC)c2)c1` [Example 35, N-(2-((3-(2′-fluoro-4,5′-dimethoxy-[1,1′-biphenyl]-3-ylsulfonamide)phenyl)amino)ethyl)-3-methoxybenzamide], under setting [4], the “Response (0.1 μM (%))” value is on record as 13%. Moreover, under setting [5], the “Response (1.0 μM (%))” value was determined as 68%. Further, the “Response (10 μM (%))” value under setting [6] is on record as 127%.

`COc1ccccc1C(=O)NCCNc1cccc(NS(=O)(=O)c2cc(-c3ccccc3Cl)ccc2OC)c1` [Example 10, N-(2-((3-(2′-chloro-4-methoxy-[1,1′-biphenyl]-3-ylsulfonamide)phenyl)amino)ethyl)-2-methoxybenzamide]: the “Response (0.1 μM (%))” value under setting [1] is less than 5%. The “Response (1.0 μM (%))” value under setting [2] is listed as less than 5%. Further, under setting [3], the “Response (10 μM (%))” value is 41%.

On to `COc1ccc(N(C)C)cc1C(=O)NCCNc1cccc(NS(=O)(=O)c2cc(-c3ccccc3F)ccc2OC)c1` [Example 5, 5-(dimethylamino)-N-(2-((3-(2′-fluoro-4-methoxy-[1,1′-biphenyl]-3-ylsulfonamide)phenyl)amino)ethyl)-2-methoxybenzamide], for which the “Response (0.1 μM (%))” value under setting [1] is listed as less than 5%. Further, under setting [2], the “Response (1.0 μM (%))” value was less than 5%. Moreover, under setting [3], the “Response (10 μM (%))” value is recorded as 23%.

As to `COc1ccccc1C(=O)NCCNc1cccc(NS(=O)(=O)c2cc(-c3c(F)cccc3F)ccc2OC)c1` [Example 17, N-(2-((3-(2′,6′-difluoro-4-methoxy-[1,1′-biphenyl]-3-ylsulfonamide)phenyl)amino)ethyl)-2-methoxybenzamide], the “Response (0.1 μM (%))” value under setting [1] is recorded as less than 5%. Under setting [2], the “Response (1.0 μM (%))” value was 18%. Besides, the “Response (10 μM (%))” value under setting [3] was 182%.

Turning to `COc1cccc(C(=O)NCCNc2cccc(NS(=O)(=O)c3cc(-c4cccc(C(=O)N5CCC5)c4)ccc3OC)c2)n1` [Example 83, N-(2-((3-(3′-(azetidine-1-carbonyl)-4-methoxy-[1,1′-biphenyl]-3-ylsulfonamido)phenyl)amino)ethyl)-6-methoxypicolinamide], the “Response (0.1 μM (%))” value under setting [4] was less than 5%. The “Response (1.0 μM (%))” value under setting [5] is recorded as 10%. Further, the “Response (10 μM (%))” value under setting [6] turned out to be 71%.

Consider `COCCN(C)C(=O)c1cccc(-c2ccc(OC)c(S(=O)(=O)Nc3cccc(NCCNC(=O)c4ccccc4OC)c3)c2)c1` [Example 77, 4′-methoxy-3′-(N-(3-((2-(2-methoxybenzamido)ethyl)amino)phenyl)sulfamoyl)-N-(2-methoxyethyl)-N-methyl-[1,1′-biphenyl]-3-carboxamide], for which the “Response (0.1 μM (%))” value under setting [4] is 42%. The “Response (1.0 μM (%))” value under setting [5] worked out at 91%. The “Response (10 μM (%))” value under setting [6] was 82%.

For the compound `COc1ccccc1C(=O)NCCNc1cccc(NS(=O)(=O)c2cc(-c3cccc(NCC(C)C)c3)ccc2OC)c1` [Example 38, N-(2-((3-(3′-(isobutylamino)-4-methoxy-[1,1′-biphenyl]-3-ylsulfonamide)phenyl)amino)ethyl)-2-methoxybenzamide], the “Response (0.1 μM (%))” value under setting [4] came out at 8%. Besides, the “Response (1.0 μM (%))” value under setting [5] amounted to 37%. Besides, under setting [6], the “Response (10 μM (%))” value came to 113%.

In the case of `COc1ccc(-c2cccc(C(=O)N(C)C)c2)cc1S(=O)(=O)Nc1cccc(NCCNC(=O)c2ccoc2C)c1` [Example 67, N-(2-((3-(3′-(dimethylcarbamoyl)-4-methoxy-[1,1′-biphenyl]-3-ylsulfonamido)phenyl)amino)ethyl)-2-methylfuran-3-carboxamide], the “Response (0.1 μM (%))” value under setting [4] worked out at 55%. The “Response (1.0 μM (%))” value under setting [5] was 96%. Also, under setting [6], the “Response (10 μM (%))” value stood at 76%.

Regarding `COc1ccc(-c2cccc(C(=O)N3CCCC3)c2)cc1S(=O)(=O)Nc1cccc(NCCNC(=O)c2ccccc2Cl)c1` [Example 87, 2-chloro-N-(2-((3-(4-methoxy-3′-(pyrrolidine-1-carbonyl)-[1,1′-biphenyl]-3-ylsulfonamido)phenyl)amino)ethyl)benzamide], the “Response (0.1 μM (%))” value under setting [4] came out at 42%. Besides, under setting [5], the “Response (1.0 μM (%))” value is reported as 90%. Further, the “Response (10 μM (%))” value under setting [6] came out at 80%.

With `COc1ccccc1C(=O)NCCNc1cccc(NS(=O)(=O)c2cc(-c3ccccc3OC)ccc2OC)c1` [Example 12, N-(2-((3-(2′,4-dimethoxy-[1,1′-biphenyl]-3-ylsulfonamide)phenyl)amino)ethyl)-2-methoxybenzamide], the “Response (0.1 μM (%))” value under setting [1] is on record as less than 5%. Further, the “Response (1.0 μM (%))” value under setting [2] is 44%. In addition, the “Response (10 μM (%))” value under setting [3] is 73%.

`COc1ccccc1C(=O)NCCNc1cccc(NS(=O)(=O)c2cc(-c3cccc(C(=O)N4CCCCC4)c3)ccc2OC)c1` [Example 80, 2-methoxy-N-(2-((3-(4-methoxy-3′-(piperidine-1-carbonyl)-1-[1,1′-biphenyl]-3-ylsulfonamido)phenyl)amino)ethyl)benzamide]: the “Response (0.1 μM (%))” value under setting [4] is 37%. Besides, the “Response (1.0 μM (%))” value under setting [5] came out at 91%. Besides, the “Response (10 μM (%))” value under setting [6] came out at 91%.

For the compound `COc1cccc(C(=O)NCCNc2cccc(NS(=O)(=O)c3cc(-c4ccccc4C)ccc3OC)c2)c1` [Example 21, 3-methoxy-N-(2-((3-(4-methoxy-2′-methyl-[1,1′-biphenyl]-3-ylsulfonamide)phenyl)amino)ethyl)benzamide], the “Response (0.1 μM (%))” value under setting [1] is on record as less than 5%. Also, under setting [2], the “Response (1.0 μM (%))” value is less than 5%. The “Response (10 μM (%))” value under setting [3] is given as 11%.

Take `COc1cccc(C(=O)NCCNc2cccc(NS(=O)(=O)c3cc(-c4cncc(OC)c4)ccc3OC)c2)c1` [Example 98, 3-methoxy-N-(2-((3-(2-methoxy-5-(5-methoxypyridin-3-yl)phenylsulfonamido)phenyl)amino)ethyl)benzamide]: the “Response (0.1 μM (%))” value under setting [1] is reported as less than 5%. Further, the “Response (1.0 μM (%))” value under setting [2] is given as 22%. The “Response (10 μM (%))” value under setting [3] is given as 91%.

As to `COc1ccc(-c2cccc(C(=O)N(C)C)c2)cc1S(=O)(=O)Nc1cccc(NCCNC(=O)c2cccc(Cl)n2)c1` [Example 55, 6-chloro-N-(2-((3-(3′-(dimethylcarbamoyl)-4-methoxy-[1,1′-biphenyl]-3-ylsulfonamido)phenyl)amino)ethyl)picolinamide], under setting [4], the “Response (0.1 μM (%))” value came to 23%. Moreover, the “Response (1.0 μM (%))” value under setting [5] stood at 144%. In addition, the “Response (10 μM (%))” value under setting [6] came to 122%.

`COc1cccc(C(=O)NCCNc2cccc(NS(=O)(=O)c3cc(-c4cccc(OC)n4)ccc3OC)c2)c1` [Example 95, 3-methoxy-N-(2-((3-(2-methoxy-5-(6-methoxypyridin-2-yl)phenylsulfonamido)phenyl)amino)ethyl)benzamide]: the “Response (0.1 μM (%))” value under setting [4] is listed as less than 5%. Besides, the “Response (1.0 μM (%))” value under setting [5] is on record as less than 5%. The “Response (10 μM (%))” value under setting [6] is given as 30%.

As for `COc1ccccc1C(=O)NCCNc1cccc(NS(=O)(=O)c2cc(-c3cc(Cl)ccc3Cl)ccc2OC)c1` [Example 25, N-(2-((3-(2′,5′-dichloro-4-methoxy-[1,1′-biphenyl]-3-ylsulfonamide)phenyl)amino)ethyl)-2-methoxybenzamide], under setting [1], the “Response (0.1 μM (%))” value was less than 5%. Further, the “Response (1.0 μM (%))” value under setting [2] is given as 7%. For the same compound, the “Response (10 μM (%))” value under setting [3] came out at 38%.

Under setting [7], `COc1ccc(-c2cccc(C(=O)N(C)C)c2)cc1S(=O)(=O)Nc1cccc(NCCNC(=O)c2sccc2Cl)c1` [Example 62, 3-chloro-N-(2-((3-(3′-(dimethylcarbamoyl)-4-methoxy-[1,1′-biphenyl]-3-ylsulfonamido)phenyl)amino)ethyl)thiophene-2-carboxamide] gave a concentration giving a half-maximal response (EC50) of 102 nM. The maximum response (Emax) under setting [8] is 99%. Besides, under setting [4], the “Response (0.1 μM (%))” value is 71%. The “Response (1.0 μM (%))” value under setting [5] is 92%. For the same compound, the “Response (10 μM (%))” value under setting [6] was found to be 94%.

Compound `COc1ccc(C(=O)NCCNc2cccc(NS(=O)(=O)c3cc(-c4cccc(C(=O)N(C)C)c4)ccc3OC)c2)cc1` [Example 44, 4′-methoxy-3′-(N-(3-((2-(4-methoxybenzamido)ethyl)amino)phenyl)sulfamoyl)-N,N-dimethyl-[1,1′-biphenyl]-3-carboxamide] had a concentration for a half-maximal effect (EC50) under setting [7] of 1050 nM. Further, the maximal response (Emax) under setting [8] was 94%. The “Response (0.1 μM (%))” value under setting [4] was less than 5%. Under setting [5], the “Response (1.0 μM (%))” value was 28%. The “Response (10 μM (%))” value under setting [6] amounted to 94%.

What is called EC50 is the concentration needed to bring the measured effect to its halfway point. Usually Emax stands for the maximal effect, on the per cent scale that the assay sets.
